From patent publication US7022343B2, “Controlled release of anti-arrhythmic agents” (Genzyme Corporation, priority 2000, dated 2006)
Where a name gives a salt, the structure may show the parent alone.

Tests used:
[1] = FOCALSEAL-L; FIG. 2A / FIG. 2B
[2] = Tissue analysis of drug content under FOCALSEAL-S gels on porcine heart; format: in vivo; details: lung tissue adjacent to gel-treated sites; pig, seven days
[3] = Amiodarone concentration in dog right atrium under FOCALSEAL-S hydrogels (Example 9); format: in vivo; details: right atrial appendage, right ventricle, left atrial appendage, left atrial free wall, distal lung

For `CCCCc1oc2ccccc2c1C(=O)c1cc(I)c(OCCN(CC)CC)c(I)c1` [amiodarone, Amiodarone hydrochloride], the “change in pH and modulus as concentration is increased” value [1] was “decrease in pH and modulus”, the concentration at 7 days [2] was no more than 17000 ng/g and the “other tissue harvested showing a detectable level of amiodarone” value [3] was “None”.
